Assays:
receptor of the opiates = target: T1, receptor of the opiates (Rattus norvegicus, UniProt P33535); experiment: Competition test with ^3 H-DHM for the receptor of the opiates; type: binding
T1 construct: variable concentrations of the tested compound and a rat brain homogenate; from tissue; host or cells: rat brain homogenate
Procedure: In this test, a fixed concentration of ^3 H-DHM labelled morphine was incubated in the presence of variable concentrations of the tested compound and a rat brain homogenate. The concentration of the compound preventing the fixing of 50% of ^3 H-DHM (IC50) is a measure of the affinity of the compound for the receptor of the opiates. The latter also gives the results obtained with PCP and TCP, as well as the ratios H^3 DA/^3 H-TCP, ^3 HQNB/^3 H-TCP and ^3 HDHM/^3 HTCP obtained with the different tested compounds.

[1] = tested on: synaptosomal striatal (^3 H)DA capture; experiment: Inhibition test of the synaptosomal striatal sample (capture) of (^3 H)DA; type: biochemical, Wistar rats
Procedure: This test is carried out according to the method used by Vignon and Lazdunski operating in the following way. Wistar rats weighing 200 to 250 g are killed by cervical dislocation. Their brains are rapidly removed and the striae dissected on ice. The striae are then homogenized with a Teflon glass Potter homogenizer in 50 volumes of tris HCl 10 mM buffer containing 0.32M of sucrose at pH 7.4 and they are centrifuged at 1000 g for 10 min. The supernatants are further centrifuged at 10000 g for 20 min. The resulting deposits P2 containing the crude synaptosomes are used without supplementary purification.
The synaptosomes are balanced with the compound to be tested for 30 min at 30° C. in the Ringer medium (mM: 140 NaCl, 5 KCl, 2.6 CaCl2, 1.3 MgSO4, 10 tris-HCl, pH=7.4)+200 μM of pargyline. This is followed by the addition of (^3 H)DA labelled dopamine at a final concentration of 5 nM for 5 min at 30° C. and sampling is interrupted by filtration of the incubate (150 μl) on GF/B filters. The non-specific sample is measured at 4° C. in parallel incubations and is deducted from the total sample at 30° C. The IC50 is the compound concentration preventing 50% of the specific capture compared with the control in the absence of an inhibitor.

[2] = tested on: pyramidal cells Ca3 of Ammon's horn; experiment: Cerebral aging in mice, histology of the hippocampus; type: in vivo; details: 5 mg/kg intraperitoneal at 23rd, 24th and 25th months; 26th month
Procedure: (§1) This example illustrates the effect of arylcyclohexylamines on cerebral aging. No matter what the cause of the cerebral aging (vascular or degenerative), it leads to a neuronal loss at the cerebral cortex, the hippocampas and to a lesser extent the cerebellum. This cellular loss can be quantified by simple histological methods and evaluated on a larger scale by means of semi-automatic image analysis methods.
(§2) In this example 6 mice aged 23 months by intraperitonealy injecting 3 of them with 5 mg/kg of TCP in the physiological solute at the 23rd, 24th and 25th months and 3 other mice were intraperitonealy injected with the physiological solute only. At the 26th month, all the mice were sacrificed by intracardial perfusion of a 5% glutaraldehyde solution, the brains were cut up with the vibratone and the sections dyed by the NISSL method.
(§3) The results obtained are given in FIGS. 2 to 5, which are sections of the brain and the cerebellum of the treated mice and the untreated control mice.

Purkinje cells = experiment: Cerebral aging in mice, histology of the cerebellum; type: in vivo; details: 5 mg/kg intraperitoneal at 23rd, 24th and 25th months; 26th month
Procedure: as §1, §2, §3

[3] = tested on: cortical and hippocampal neurons; experiment: In vitro neuron culture survival after 2 months, count of neurons (Example 23); type: cell-based, rat; details: single dose at start of third week; TCP 2.5 and 20, compound 9 and MK801 2.5 and 5 μmole/l; control 50 neurons/mm^2
Procedure: This example also illustrates the effect of the arylcyclohexylamines according to the invention on the in vitro neuron culture survival. As in example 21, cortical and hippocampal neuron cultures are prepared. At the start of the third culturing week, the cells are treated with a single dose of the compound to be tested and culturing is continued for two months. At the end of this period, the cells which were fixed and dyed to reveal the specific enolase of the neurons are subject to counts in order to determine the quantity of cells per surface unit.
The results obtained are given in FIG. 1, which is a histogram indicating the number of cells/mm^2 which survived after 2 months culturing.
The results are given for the control, i.e. for untreated cultures, cultures treated with 2.5 and 20 μmole/l of TCP, cultures treated by compound no. 9 at concentrations of 2.5 and 5 μmole/l and cultures treated by compound MK801 at concentrations of 2.5 and 5 μmole/l. Compound MK801, which is known to have a neuroprotection activity, is (+)-methyl-5-dihydro-10,11(5H)dibenzo(A,D) cyclohepteneimine-5,10 of formula: [drawing 38] From FIG. 1 it can be seen that the control cultures, after surviving for 2 months, on average contain 50 neurons/mm^2. The treated cultures, no matter what the compound and dose used, contain more than 500 neurons/mm^2.

site of PCP = experiment: Affinity for the PCP site, competition with (^3 H)PCP on rat brain homogenates; type: binding; details: rat brain homogenate, pH 7.7, 25° C., 1 nmole tritiated ligand
Swiss mice = experiment: Simple rotary bar test (dose at which 50% of the animals drop); type: in vivo; details: Mus musculus, sc; Swiss mice, subcutaneous, dose at which 50% of the animals drop; read-out: ED50
Procedure: In this example, the properties of compounds 1 to 5 and 8 to 11 are tested on Swiss mice.
Different doses of the compounds to be tested are administered subcutaneously to the mice and the latter are then placed in batches of 10 on a rotary bar, being separated from one another by separating disks. This bar is made from scraped wood, has a diameter of 3 cm and is moved horizontally with a uniform circular movement about its axis at a speed of 10 rpm.
Determination takes place of the ED50, which is the dose at which 50% of the animals drop, the dose being expressed in mg/kg.

site of TCP = experiment: Affinity for the TCP site, competition with (^3 H)TCP on rat brain homogenates; type: binding; details: rat brain homogenate, pH 7.7, 25° C., 1 nmole tritiated ligand; read-out: ^3 HTCP IC50
[4] = target: cerebral cholinergic muscarinic receptor; type: binding, rat; details: for IC50: rat brain homogenate, read-out: ^3 HQNB IC50; for ^3 HQNB/^3 HTCP: ratio of IC50
[5] = Subcutaneous LD50 in the rat; details: in vivo, sc

T1 sequence (P33535 whole entry): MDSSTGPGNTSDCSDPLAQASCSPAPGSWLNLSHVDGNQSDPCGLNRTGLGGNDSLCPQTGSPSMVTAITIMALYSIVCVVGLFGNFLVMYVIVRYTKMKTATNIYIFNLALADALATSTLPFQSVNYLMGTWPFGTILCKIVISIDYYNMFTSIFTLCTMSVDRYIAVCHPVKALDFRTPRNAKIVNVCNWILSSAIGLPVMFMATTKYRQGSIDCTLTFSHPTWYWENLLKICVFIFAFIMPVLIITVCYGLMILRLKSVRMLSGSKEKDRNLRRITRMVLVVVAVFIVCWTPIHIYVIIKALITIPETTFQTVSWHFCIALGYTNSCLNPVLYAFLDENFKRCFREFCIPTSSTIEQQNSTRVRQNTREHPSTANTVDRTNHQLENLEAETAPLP

Row | SMILES | IC50 (receptor of the opiates; rat brain homogenate, read-out: ^3 HDHM IC50) [µM] | ^3 HDHM/^3 HTCP (receptor of the opiates; ratio of IC50) | IC50 ([1]; rat striatal synaptosomes, 5 nM (^3 H)DA, 5 min at 30° C., pH 7.4, read-out: ^3 HDA IC50) [nM] | ^3 HDA/^3 H-TCP ([1]; ratio of IC50) | rarefaction of the pyramidal cells Ca3 of Ammon's horn versus untreated [2] | rarefication of the Purkinje cells at the cerebellum versus untreated (Purkinje cells) | number of neurons which survived after 2 months culturing [3] | IC50 (site of PCP) [nM] | ED50 (Swiss mice) [mg/kg] | IC50 (site of TCP) [nM] | IC50 [4] [µM] | ^3 HQNB/^3 HTCP [4] | LD50 [5] [mg/kg]
1 | c1csc(C2(N3CCCCC3)CCCCC2)c1 [TCP, ((2-thienyl)-1 cyclohexyl)-N-piperidine, reference compound] | 11 | 74.6 | 1600 | 25.39 | much less marked | much less significant | more than 500 neurons/mm^2 | 26 | 2.3 | 63 | 21 | 333 | –
2 | OCC1CCCN(C2(c3ccccc3)CCCCC2)C1 (centres unmarked) [compound 4, [(hydroxymethyl-3piperidino)-1]-1phenyl-1 cyclohexane] | – | – | – | – | – | – | – | 1000 | 1.8 | – | 100 | 100 | > 60

— patent US5179109A (priority 1988, dated 1993)
